experiment: Stability of bis azainositol hafnium complexes in aqueous buffered solution on heat treatment (steam autoclave); type: physicochemical; conditions: aqueous buffered solution pH 7.4, 5 mmol/L, 121° C. for 45 minutes in steam autoclave; HPLC peak area ratio x metal concentration ratio (ICP-OES)
Experimental: The stability of bis azainositol hafnium complexes was determined in aqueous, buffered solution at pH 7.4. The solution containing 5 mmol/L of the compound in a tightly sealed vessel was heated to 121° C. for 45 minutes in a steam autoclave. The hafnium concentration of the solution was determined by ICP-OES before and after heat treatment. The integrity of the compound was determined by HPLC analysis before and after heat treatment. Absolute stability was calculated as the ratio of the peak area of the compound after and before the heat treatment multiplied with the ratio of the metal concentration of the solution after and before heat treatment.
HPLC system: Column 1: Reversed phase C18.
Solvent A1: 0.5 mM tetrabutylammonium phosphate pH 6 Solvent A2: 0.1% formic acid in water Solvent B1: methanol Solvent B2: acetonitrile
The use of columns, solvents, flow rate and gradients is detailed in the table below. Detector: element specific detection by ICP-MS, running at m/z 180, the most abundant isotope of hafnium

Going from “Bis[μ3-2,2′-({[1R-(1α,2α,3α,4α,5α,6α)]-2,4,6-trihydroxylato-1κ^2O^2O^6,2κ^2O^2O^4,3κ^2O^4O^6-5-[(2-hydroxylato-3κO-ethyl)amino-3κN^5]cyclohexane-1,3-diyl}diimino-1κN^1,2κN^3)di-acetato-1κO,2κO′]trihafnium (IV) [Example 8]” to “Bis[μ3-2,2′-({[1R-(1α,2α,3α,4α,5α,6α)]-5-[(2-carboxylato-3κO-ethyl)amino-3κN^5]-2,4,6-trihydroxylato-1κ^2O^2O^6,2κ^2O^2O^4,3κ^2O^4O^6-cyclohexane-1,3-diyl}diimino-1κN^1,2κN^3)di-acetato-1κO,2κO′]trihafnium(IV) [Example 10]”, the Stability rises from 100% to 101%.

Going from “Bis[μ3-3,3′-({[1R-(1α,2α,3α,4α,5α,6α)]-2,4,6-trihydroxylato-1κ^2O^2O^6,2κ^2O^2O^4,3κ^2O^4O^6-5-[(2-hydroxylato-3κO-ethyl)amino-3κN^5]cyclohexane-1,3-diyl}diimino-1κN1,2κN^3)di-propanoato-1κO,2κO′]trihafnium (IV) [Example 3]” to “Bis[μ3-3,3′-({[1R-(1α,2α,3α,4α,5α,6α)]-5-[(2S,3R)(3,4-dihydroxy-2-hydroxylato-3κO-butyl)amino-3κN^5]-2,4,6-trihydroxylato-1κ^2O^2O^6,2κ^2O^2O^4,3κ^2O^4O^6-cyclohexane-1,3-diyl}diimino-1κN^1,2κN^3)dipropanoato-1κO,2κO′]trihafnium(IV) [Example 5]”, the Stability rises from 100% to 101%.

With “Hydroxido-3κO-[μ3-3,3′,3″-({[1R-(1α,2α,3α,4α,5α,6α)]-2,4,6-trihydroxylato-1κ^2O^2O^6, 2κ^2O^2O^4,3κ^2O^4O^6-cyclohexane-1,3,5-triyl}tris{methylimino-1κN^1,2κN^3,3κN^5}) tri-propanoato-1κO,2κO′,3κO″][μ3-3,3′-({[1R-(1α,2α,3α,4α,5α,6α)]-2,4,6-trihydroxylato-1κ^2O^2O^6,2κ^2O^2O^4,3κ^2O^4O^6-5-[methylamino-3κN^5]cyclohexane-1,3-diyl}bis{methyl-imino-1κN^1,2κN^3})dipropanonato-1κO,2κO′]trihafnium (IV) [Example 1]” the Stability was 100%.

From patent US20160060209A1, “BIS A[…] COMPLEXES FOR X-RAY IMAGING” (BAYER PHARMA AKTIENGESELLSCHAFT üß, priority 2013, published 2016)
